From patent US9447100B2, “Substituted pyrazolo[1,5-A] pyrimidines as calcium receptor modulating agents” (Takeda Pharmaceutical Company Limited, priority 2002, dated 2016)
Where a name gives a salt, the structure may show the parent alone.

melting point [°C] | Structure (SMILES)
140 to 141 | CCC(CC)(NC(=O)c1c(C)nn2c1NC(c1ccccc1)CC2(C)C)c1ccc(N(C)C)cc1 (centres unmarked) (as salt: HCl) [Example 821, N-(1-(4-(dimethylamino)phenyl)-1-ethylpropyl)-2,7,7-trimethyl-5-phenyl-4,5,6,7-tetrahydropyrazolo[1,5-a]pyrimidine-3-carboxamide]
226 to 227 | CC1(C)C[C@H](c2ccccc2)Nc2c(C(=O)NC34CC5CC(CC(C5)C3)C4)cnn21 [Example 1030, (5R)-N-1-adamantyl-7,7-dimethyl-5-phenyl-4,5,6,7-tetrahydropyrazolo[1,5-a]pyrimidine-3-carboxamide]
172 to 174 | CCC1(CC)C[C@@H](OCc2ccccc2)CN1C(=O)c1cnn2c1N[C@H](c1ccccc1)CC2(C)C [Example 1105, (5S)-3-(((4R)-4-(benzyloxy)-2,2-diethyl-1-pyrrolidinyl)carbonyl)-7,7-dimethyl-5-phenyl-4,5,6,7-tetrahydropyrazolo[1,5-a]pyrimidine]
120 to 123 | CCC(CC)(NC(=O)c1c(C)nn2c1NC(c1cccc(C)c1)CC2(C)C)c1ccc(C)cc1 (centres unmarked) (as salt: HCl) [Example 974, N-(1-ethyl-1-(4-methylphenyl)propyl)-2,7,7-trimethyl-5-(3-methylphenyl)-4,5,6,7-tetrahydropyrazolo[1,5-a]pyrimidine-3-carboxamide]
148 to 150 | CCC1(CC)C[C@@H](OC)CN1C(=O)c1cnn2c1N[C@@H](c1ccccc1)CC2(C)C [Example 1111, (5R)-3-(((4R)-2,2-diethyl-4-methoxy-1-pyrrolidinyl)carbonyl)-7,7-dimethyl-5-phenyl-4,5,6,7-tetrahydropyrazolo[1,5-a]pyrimidine]
186 to 187 | Cc1nn2c(c1C(=O)O)NC(c1cccs1)CC2(C)C (centres unmarked) [Example 951, 2,7,7-trimethyl-5-(2-thienyl)-4,5,6,7-tetrahydropyrazolo[1,5-a]pyrimidine-3-carboxylic acid]
150 to 151 | CCC(CC)(NC(=O)c1c(C)nn2c1N[C@@H](c1ccccc1)CC2(C)C)c1ccc(Cl)c(C)c1 (as salt: HCl) [Example 1068, (5R)-N-(1-(4-chloro-3-methylphenyl)-1-ethylpropyl)-2,7,7-trimethyl-5-phenyl-4,5,6,7-tetrahydropyrazolo[1,5-a]pyrimidine-3-carboxamide]
152 to 153 | CCC(CC)(NC(=O)c1c(C)nn2c1NC(c1ccccc1F)CC2(C)C)c1ccc(N(C)C)cc1 (centres unmarked) (as salt: HCl) [Example 969, N-(1-(4-(dimethylamino)phenyl)-1-ethylpropyl)-5-(2-fluorophenyl)-2,7,7-trimethyl-4,5,6,7-tetrahydropyrazolo[1,5-a]pyrimidine-3-carboxamide]
140 to 142 | CCC1(CC)C[C@@H](O)CN1C(=O)c1c(C)nn2c1N[C@@H](c1ccccc1)CC2(C)C (as salt: HCl) [Example 1098, (3R)-5,5-diethyl-1-(((5R)-2,7,7-trimethyl-5-phenyl-4,5,6,7-tetrahydropyrazolo[1,5-a]pyrimidin-3-yl)carbonyl)-3-pyrrolidinol]
174 to 175 | CCC(CC)(c1ccccc1)c1nnc(-c2c(C)nn3c2N[C@@H](c2ccccc2)CC3(C)C)s1 [Example 1145, (5R)-3-(5-(1-ethyl-1-phenylpropyl)-1,3,4-thiadiazol-2-yl)-2,7,7-trimethyl-5-phenyl-4,5,6,7-tetrahydropyrazolo[1,5-a]pyrimidine]

The remaining lines, values behind:

Structure (SMILES) | melting point [°C]
CCC(CC)(NC(=O)c1cnn2c1NC(c1ccccc1)CC2(C)C)c1ccc(I)cc1 (centres unmarked) [Example 667, N-(1-ethyl-1-(4-iodophenyl)propyl)-7,7-dimethyl-5-phenyl-4,5,6,7-tetrahydropyrazolo[1,5-a]pyrimidine-3-carboxamide] | 182 to 183
CCC(CC)(NC(=O)c1cnn2c1NC(c1ccccn1)CC2(C)C)c1ccc(F)cc1 (centres unmarked) [Example 601, N-(1-ethyl-1-(4-fluorophenyl)propyl)-7,7-dimethyl-5-(2-pyridinyl)-4,5,6,7-tetrahydropyrazolo[1,5-a]pyrimidine-3-carboxamide] | 167 to 169
CCC(NC(=O)c1cnn2c1NC(c1ccccc1)CC2C(F)(F)F)c1ccccc1Br (centres unmarked) [Example 401, N-(1-(2-bromophenyl)propyl)-5-phenyl-7-(trifluoromethyl)-4,5,6,7-tetrahydropyrazolo[1,5-a]pyrimidine-3-carboxamide] | 236 to 237
CCC(CC)(NC(=O)c1cnn2c1NC(c1ccccc1)C1CCCCC12)c1ccc(C(F)(F)F)cc1 (centres unmarked) [Example 201, N-(1-ethyl-1-(4-(trifluoromethyl)phenyl)propyl)-5-phenyl-4,5,5a,6,7,8,9,9a-octahydropyrazolo[1,5-a]quinazoline-3-carboxamide] | 213 to 214
CCC1(NC(=O)c2cnn3c2NC(c2ccccc2)CC3(C)C)CCSCC1 (centres unmarked) [Example 575, N-(4-ethyltetrahydro-2H-thiopyran-4-yl)-7,7-dimethyl-5-phenyl-4,5,6,7-tetrahydropyrazolo[1,5-a]pyrimidine-3-carboxamide] | 97 to 98
CCC(CC)(NC(=O)c1cnn2c1NC(c1ccccc1)CC2(C)C)c1ccc(Cl)c(Cl)c1 (centres unmarked) [Example 666, N-(1-(3,4-dichlorophenyl)-1-ethylpropyl)-7,7-dimethyl-5-phenyl-4,5,6,7-tetrahydropyrazolo[1,5-a]pyrimidine-3-carboxamide] | 156 to 157
CC1(C)CC(c2ccccc2)Nc2c(C(=O)NC3(CO)CCCCC3)cnn21 (centres unmarked) [Example 644, N-(1-(hydroxymethyl)cyclo-hexyl)-7,7-dimethyl-5-phenyl-4,5,6,7-tetrahydropyrazolo[1,5-a]pyrimidine-3-carboxamide] | 175 to 176
CCCC(CC)(CC)NC(=O)c1cnn2c1NC(c1ccccc1)CC2(C)C (centres unmarked) [Example 646, N-(1,1-diethylbutyl)-7,7-dimethyl-5-phenyl-4,5,6,7-tetrahydropyrazolo[1,5-a]pyrimidine-3-carboxamide] | 76 to 77
CC1CC(c2ccccc2)Nc2c(C(=O)O)cnn21 (centres unmarked) [Example 27, 7-methyl-5-phenyl-4,5,6,7-tetrahydropyrazolo[1,5-a]pyrimidine-3-carboxylic acid] | 165 to 167
CCC(NC(=O)c1cnn2c1NC(c1ccccc1)CC2(C)C)c1ccccc1Br (centres unmarked) [Example 416, N-(1-(2-bromophenyl)propyl)-7,7-dimethyl-5-phenyl-4,5,6,7-tetrahydropyrazolo[1,5-a]pyrimidine-3-carboxamide] | 200 to 201
CCC(CC)(NC(=O)c1cnn2c1NC(c1ccccc1OC)CC2(C)C)c1ccc(F)cc1 (centres unmarked) [Example 600, N-(1-ethyl-1-(4-fluorophenyl)propyl)-5-(2-methoxyphenyl)-7,7-dimethyl-4,5,6,7-tetrahydropyrazolo[1,5-a]pyrimidine-3-carboxamide] | 206.2 to 206.3
CC1(C)CC(c2ccccc2)Nc2c(C(=O)NC3(C(=O)O)CCCCC3)cnn21 (centres unmarked) [Example 625, 1-(((7,7-dimethyl-5-phenyl-4,5,6,7-tetrahydropyrazolo[1,5-a]pyrimidin-3-yl)carbonyl)amino)cyclo-hexanecarboxylic acid] | 215 to 216
CC(C)(NC(=O)c1cnn2c1NC(c1ccccc1)CC2(C)C)c1ccc(Cl)cc1 (centres unmarked) (as salt: HCl) [Example 791, N-(1-(4-chlorophenyl)-1-methylethyl)-7,7-dimethyl-5-phenyl-4,5,6,7-tetrahydropyrazolo[1,5-a]pyrimidine-3-carboxamide] | 207 to 208
CCC(CC)(NC(=O)c1cnn2c1NC(c1ccccc1)CC21CCCCC1)c1ccc(C(F)(F)F)cc1 (centres unmarked) [Example 200, N-(1-ethyl-1-(4-(trifluoromethyl)phenyl)propyl)-5′-phenyl-5′,6′-dihydro-4′H-spiro[cyclohexane-1,7′-pyrazolo[1,5-a]pyrimidine]-3′-carboxamide] | 274 to 275
CCC(CC)(Cc1ccc(OC)cc1)NC(=O)c1cnn2c1NC(c1ccccc1)CC2(C)C (centres unmarked) [Example 704, N-(1-ethyl-1-(4-methoxybenzyl)propyl)-7,7-dimethyl-5-phenyl-4,5,6,7-tetrahydropyrazolo[1,5-a]pyrimidine-3-carboxamide] | 185 to 186
COc1ccccc1C1CC(C)(C)n2ncc(C(=O)NC34CC5CC(CC(C5)C3)C4)c2N1 (centres unmarked) [Example 581, N-1-adamantyl-5-(2-methoxyphenyl)-7,7-dimethyl-4,5,6,7-tetrahydropyrazolo[1,5-a]pyrimidine-3-carboxamide] | 280 to 282
CCC(CC)(NC(=O)c1cnn2c1NC(c1ccccc1)CC2(C)C)c1ccc(N(C)C)cc1 (centres unmarked) [Example 778, N-(1-(4-(dimethylamino)phenyl)-1-ethylpropyl)-7,7-dimethyl-5-phenyl-4,5,6,7-tetrahydropyrazolo[1,5-a]pyrimidine-3-carboxamide] | 128 to 129
CCC(CC)(Cc1ccc(Cl)cc1)NC(=O)c1cnn2c1NC(c1ccccc1)CC2(C)C (centres unmarked) [Example 699, N-(1-(4-chlorobenzyl)-1-ethylpropyl)-7,7-dimethyl-5-phenyl-4,5,6,7-tetrahydropyrazolo[1,5-a]pyrimidine-3-carboxamide] | 156 to 157
CCC1(CC)CC(c2ccccc2)Nc2c(C(=O)NC34CC5CC(CC(C5)C3)C4)cnn21 (centres unmarked) | 213 to 214
CCC(CC)(CCSC)NC(=O)c1cnn2c1NC(c1ccccc1)CC2(C)C (centres unmarked) [Example 665, N-(1,1-diethyl-3-(methylthio)propyl)-7,7-dimethyl-5-phenyl-4,5,6,7-tetrahydropyrazolo[1,5-a]pyrimidine-3-carboxamide] | 154 to 155
CCC(CC)(NC(=O)c1c(C)nn2c1NC(c1ccccc1C)CC2(C)C)c1ccc(C)cc1 (centres unmarked) (as salt: HCl) [Example 782, N-(1-ethyl-1-(4-methylphenyl)propyl)-2,7,7-trimethyl-5-(2-methylphenyl)-4,5,6,7-tetrahydropyrazolo[1,5-a]pyrimidine-3-carboxamide] | 187 to 188
CCC(CC)(NC(=O)c1cnn2c1NC(c1ccccc1)CC2(C)C)c1ccc(CCCO)cc1 (centres unmarked) [Example 763, N-(1-ethyl-1-(4-(3-hydroxy-propyl)phenyl)propyl)-7,7-dimethyl-5-phenyl-4,5,6,7-tetrahydropyrazolo[1,5-a]pyrimidine-3-carboxamide] | 194 to 195
